Test results: patent US11814396B2, “Sesquiterpenoid analogs” (Purdue Research Foundation, priority 2018, dated 2023)

Columns and labels:
[1] = system: production of nitric oxide; details: reported; cited from earlier work
[2] = system: HeLa cells; test: Visualization of DNA double strand breaks by γH2AX staining (confocal microscopy); assay type: cell-based
Method: HeLa cells were seeded (250′000 cells/mL) in a 6-well plate and reverse transfected with scrambled siRNA or POLE3 siRNA using RNAiMAX for two days. Cells were trypsinizned, seeded (150′000 cells/mL) in a 24-well plate containing a coverslip and left overnight to attach and grow. […] Cells were washed one time with PBS and fixed with methanol at −20° C. for 10 min. Cells were washed again two times with PBS and coverslip was transferred to a wet box.
Blocking was performed with a 5% bovine serum albumin (BSA) solution in PBS for 30 min. Cells were washed one time with PBS 0.1% BSA and rabbit antibody directed against H2AX pSer^139 (Sigma Aldrich H5912, 1/250 in PBS 0.1% BSA) was added and incubated for one hour at r.t. Cells were washed three times with PBS 0.1% BSA and incubated for one hour with anti-rabbit IgG Alexa Fluor 488 (Jackson, 1/200 in PBS 0.1% BSA). Cells were washed three times with PBS 0.1% BSA, one time with PBS, one time with water and then mounted on a slide with ProLong Gold antifade mountant with DAPI (Life Technologies). Cells were visualized with an LSM 700 confocal microscope (Zeiss).
Induced DNA damage was measured by confocal microscopy using γH2AX staining as marker.

[3] = target: T1, POLE3-GFP (Homo sapiens, UniProt Q9NRF9); test: Gel-based determination of kinetic parameters Ki and kinact (Kitz and Wilson method); assay type: binding; details: lysate of 293T cells overexpressing WT POLE3-GFP, 37° C., competition with 30 μM Example 4
T1 construct: expressed in transfected cells; host or cells: 293T
T1 sequence (Q9NRF9 1-147): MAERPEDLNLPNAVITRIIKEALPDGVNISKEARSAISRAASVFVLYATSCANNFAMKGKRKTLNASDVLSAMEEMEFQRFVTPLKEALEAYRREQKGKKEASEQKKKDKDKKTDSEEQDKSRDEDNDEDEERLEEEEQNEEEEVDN
Method: 293T cells in a 3.5 cm Petri dish were transfected with POLE3-WT-GFP-pEXP or […] using PEI-MAX. After 24 hours, lysates were prepared as described above. Proteins (1 mg/mL, 25 μL) were incubated with indicated compounds at indicated concentrations (25× stock in DMSO) for three hours at 37° C. Subsequently, 30 μM Example 4 (25× stock in DMSO) was added for one hour at r.t. Click chemistry, reducing SDS-PAGE and visualization were performed as described above. Proteins were transferred to a PVDF membrane using a Trans-Blot Turbo transfer system (Bio-Rad). Membrane was blocked with 3% BSA in Tris-Buffered Saline with 0.1% Tween 20 (TBST) for one hour at r.t. Mouse monoclonal antibody against GFP (Roche, 1/1000 in 3% BSA in TBST) was added and incubated overnight at 4° C. Membrane was washed three times for five min. with TBST and incubated with anti-mouse Alexa Fluor 647 (Jackson ImmunoResearch Inc., 1/500 in 3% BSA in TBST) for one hour at r.t. Membrane was washed four times for five min. with TBST and visualized with an Azure Biosystems Sapphire Biomolecular Imager.
WT POLES-GFP was overexpressed in 293T cells as described above and lysate was treated with indicated concentrations of Example 2 (1 μL of 25× stock in DMSO) for 1.5, 2, 2.5, 3, 3.5 or 4 hours at 37° C. […] Images were quantified using ImageJ and the kinetic parameters were determined using GraphPad Prism (V7.02).).

[4] = target: T2, POLE3 (Homo sapiens, UniProt Q9NRF9); test: Global proteomics profiling versus POLE3 knockdown; assay type: cell-based; details: HeLa cells
T2 construct: endogenous in cells; host or cells: HeLa
T2 sequence (Q9NRF9 1-147): T1 sequence (Q9NRF9 1-147)
Description: To understand whether binding of Example 2 to C51 of POLE3 is productive and leads to the loss of function of this protein, POLE3 was knocked down in HeLa cells using siRNA and compared by global proteomics the protein expression profile in these cells versus cells treated with compound Example 2 or DMSO as control. […] Possibly as a compensatory effect, we also observed fourfold upregulation of POLE, another subunit of DNA polymerase ε.
Knockdown of POLE3 was achieved using RNAiMAx (Invitrogen) and POLE3 siRNA (Dharmacon) via reverse transfection according to the manual of the manufacturer. Briefly, 9 μL of 20 μM siRNA was mixed with 9 μL of RNAiMax reagent in 500 μL OptiMEM and incubated for 20 min. at r.t. […] Samples were analyzed by LC-MS/MS (see below) and the MS data was processed with MaxQuant (see below).
Peptides were resuspended in water with 0.1% formic acid (FA) and analyzed using EASY-nLC 1200 nano-UHPLC coupled to Q Exactive HF-X Quadrupole-Orbitrap mass spectrometer (Thermo Scientific). […]
The MS data was analyzed with MaxQuant (V1.6.1.0) and searched against the human proteome (Uniprot) and a common list of contaminants (included in MaxQuant). […] The minimum peptide length was set to 6 amino acids and peptide re-quantification, label-free quantification (MaxLFQ) and “match between runs” were enabled. […]

[5] = target: T3, SHP2 (Homo sapiens, UniProt Q06124); test: PTP inhibition study with pNPP as substrate; assay type: biochemical; details: pH 7, 25° C.; for IC50: 15 min
T3 sequence (Q06124 1-593): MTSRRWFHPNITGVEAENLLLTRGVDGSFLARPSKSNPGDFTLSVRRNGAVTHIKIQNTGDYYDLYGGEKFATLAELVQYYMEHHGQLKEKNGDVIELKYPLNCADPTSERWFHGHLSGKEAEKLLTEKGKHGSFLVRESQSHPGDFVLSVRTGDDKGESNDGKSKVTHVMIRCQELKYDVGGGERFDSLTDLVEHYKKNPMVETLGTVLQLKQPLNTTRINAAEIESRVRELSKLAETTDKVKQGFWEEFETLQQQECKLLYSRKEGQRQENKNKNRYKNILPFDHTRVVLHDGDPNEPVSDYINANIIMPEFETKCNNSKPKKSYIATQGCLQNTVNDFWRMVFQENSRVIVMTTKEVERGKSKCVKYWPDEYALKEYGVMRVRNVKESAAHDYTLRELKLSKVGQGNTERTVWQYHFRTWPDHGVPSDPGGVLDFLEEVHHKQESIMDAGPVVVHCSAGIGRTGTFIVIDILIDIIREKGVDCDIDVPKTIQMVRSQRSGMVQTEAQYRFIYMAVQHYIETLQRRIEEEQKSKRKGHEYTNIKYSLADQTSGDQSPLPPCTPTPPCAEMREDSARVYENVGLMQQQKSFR
Method: PTP Inhibition Study. Abies sesquiterpenoids and their analogs were evaluated for their ability to inhibit the reaction catalyzed by PTP1B and SHP2 using p-nitrophenyl phosphatae (pNPP) as a substrate at pH 7 and 25° C. […] The reaction was quenched after 3 (PTP1B) or 15 (SHP2) min by the addition of 25 μl of 5N NaOH. The absorbance at 405 nm was detected by a Spectra MAX 384 PLUS microplate spectrophotometer (Molecular Devices). IC50 values were calculated by fitting the absorbance at 405 nm versus inhibitor concentration to the following equation: A1/A0=IC50/(IC50+[I]) wherein A1 is the absorbance at 405 nm of the sample in the presence of inhibitor; A0 is the absorbance at 405 nm in the absence of inhibitor; and [I] is the concentration of the inhibitor.

[6] = system: MDA-MB-231 lysate; test: Gel-based in vitro JW-RF-001 competition of labeling with Example 4; assay type: binding; details: 30 μM Example 4, MDA-MB-231 lysate, one hour at r.t.
Method: MDA-MB-231 lysate (2 mg/mL, 25 μL) was treated with indicated concentrations of azide probes (Example 4) (1 μL of 25× stock in DMSO) for one hour at r.t. Click chemistry was initiated by the addition of TAMRA alkyne (Sigma-Aldrich, 30 μM, 25× stock in DMSO), tris(2-carboxyethyl)phosphine hydrochloride (TCEP, Alfa Aesar, 1 mM, fresh 50× stock in water), tris[(1-benzyl-1H-1,2,3-triazol-4-yl)methyl]amine (TBTA, Sigma-Aldrich, 100 μM, 16× stock in DMSO:tBuOH 1:4), and copper(II) sulfate (1 mM, 50× stock in water) to the lysate and incubated in the dark for one hour at r.t. SDS-PAGE reducing loading buffer (4×) was added and proteins were separated using a 10% SDS-PAGE gel. Gels were visualized using an Azure Biosystems Sapphire Biomolecular Imager, then stained using Coomassie. Images were quantified with ImageJ (V1.51).
MDA-MB-231 lysate (2 mg/mL, 25 μL) was treated with either 3 mM JW-RF-001 (1 μL of 25× stock in DMSO) or DMSO for one hour at r.t. Subsequently, lysate was incubated with 30 μM Example 4 (1 μL, of 25× stock in DMSO) for one hour at r.t. Click chemistry, reducing SDS-PAGE and visualization were performed as described above.

[7] = target: T4, PTP1B (Homo sapiens, UniProt P18031); details: reported by Hu et al., Eur. J. Org. Chem. 2016; cited from earlier work
T4 sequence (P18031 1-435): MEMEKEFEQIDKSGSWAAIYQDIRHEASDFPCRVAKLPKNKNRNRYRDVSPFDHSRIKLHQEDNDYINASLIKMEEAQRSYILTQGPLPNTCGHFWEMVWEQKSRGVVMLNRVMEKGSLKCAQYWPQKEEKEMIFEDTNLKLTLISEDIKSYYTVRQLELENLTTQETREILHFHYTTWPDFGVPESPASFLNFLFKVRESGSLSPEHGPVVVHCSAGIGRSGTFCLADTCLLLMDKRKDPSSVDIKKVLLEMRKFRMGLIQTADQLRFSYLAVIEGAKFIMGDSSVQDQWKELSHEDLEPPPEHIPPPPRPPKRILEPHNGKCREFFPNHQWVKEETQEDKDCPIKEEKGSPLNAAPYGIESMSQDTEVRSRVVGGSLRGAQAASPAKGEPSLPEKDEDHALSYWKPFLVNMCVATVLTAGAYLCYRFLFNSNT

In the case of `CC1=C[C@@]2(C[C@H](C)[C@H]3CC=C(C)[C@@H](O[C@@H]4O[C@H](CO)[C@@H](O)[C@H](O)[C@H]4O)[C@@H]3O2)OC1=O` [Abiespiroside A, abiespiroside A], the “inhibitory activity against the production of nitric oxide” value [1] is listed as “potent inhibitory activity”.

With `C=C1C[C@@]2(C[C@H](C)[C@H]3CC=C(C)C(=O)[C@@H]3O2)OC1=O` [Example 2, (2R,4S,4aR,8aR)-4,7-dimethyl-4′-methylene-3,3′,4,4a,4′,8a-hexahydro-5′H-spiro[chromene-2,2′-furan]-5′,8(5H)-dione] the “γH2AX signal, combination with etoposide versus etoposide only-treated cells” value ([2]; 30 μM etoposide combined with 30 μM Example 2, 6 hours) was “significantly stronger γH2AX signal”, the “γH2AX signal intensity, compound alone” value ([2]; 30 μM, 6 hours) was “did not lead to an increase” and the kinact [3] was 0.0045 s⁻¹. For the same compound, the Ki ([3]; read-out: POLE3-GFP binding constant Ki) was 56.9 µM, the “functional effect of binding on POLE3 (overlap of protein expression profile with POLE3 KD cells)” value ([4]; 30 μM, 6 h treatment) was “leads to the loss of function of POLE3” and the “upregulation of POLE” value ([4]; POLE3 KD and Example 2-treated (30 μM, 6 h)) was “fourfold”. The “preference for SHP2 over PTP1B” value [5] was 10 fold and the IC50 [5] was 44.9 ± 9.6 µM.

In the case of `C=C1C[C@@]2(C[C@H](C)[C@H]3CC=C(CO)C(=O)[C@@H]3O2)OC1=O` [Example 3, (2R,4S,4aR,8aR)-7-(hydroxymethyl)-4-methyl-4′-methylene-3,3′,4,4a,4′,8a-hexahydro-5′H-spiro[chromene-2,2′-furan]-5′,8(5H)-dione], the “preference for SHP2 over PTP1B” value [5] is reported as 10 fold and the IC50 [5] is reported as 33.3 ± 0.9 µM.

For `C=C1CC2(CC(C)C3CC=C(CO)C(O)C3O2)OC1=O` (stereo not shown) [Example 3′], the “preference for SHP2 over PTP1B” value [5] was 10 fold and the IC50 [5] was 3.3 ± 0.1 µM.

For `C=C1C[C@@]2(C[C@H](C)[C@H]3CC=C(CN=[N+]=[N-])C(=O)[C@@H]3O2)OC1=O` [Example 4, (2R,4S,4aR,8aR)-7-(azidomethyl)-4-methyl-4′-methylene-3,3′,4,4a,4′,8a-hexahydro-5′H-spiro[chromene-2,2′-furan]-5′,8(5H)-dione], the “binding of the azide probe in lysate” value [6] was “binded to cysteines”.

In the case of `CC1=C[C@@]2(C[C@H](C)[C@H]3CC=C(CO)C(=O)[C@@H]3O2)OC1=O` [beshanzuenone C], the IC50 [7] is listed as 59.7 µM.

In the case of `CC1=C[C@@]2(C[C@H](C)[C@H]3CC=C(C)C(=O)[C@@H]3O2)OC1=O` [beshanzuenone D], the IC50 [7] is listed as 40.4 µM.
